Consider 22 compounds from ChEMBL document CHEMBL3872282, “Dithiocarbamates effectively inhibit the β-carbonic anhydrase from the dandruff-producing fungus Malassezia globosa” (Bioorg Med Chem, 2017).

A short description of the experiment: Inhibition of Malassezia globosa beta-carbonic anhydrase preincubated for 15 mins prior to testing by phenol red-based stopped-flow CO2 hydration assay.

The term Ki denotes the equilibrium dissociation constant of an inhibitor or competing ligand from its target. Regarding `S=C(S)N[C@@H]1CN2CCC1CC2`, the Ki stood at 724 nM. This lies in the sub-micromolar range.

`S=C(S)NC1CN2CCC1CC2` (racemic): the inhibitory constant (Ki) worked out at 643 nM. To `O=C(O)C1CCCCN1C(=S)S` (configuration not stated) belongs 2400 nM; to `O=C(O)C1COCCN1C(=S)S` (configuration not stated), 4740 nM. `S=C(S)N[C@H]1CN2CCC1CC2` yielded a Ki of 490 nM. This Ki is about 9.7-fold lower than that of the compound before. To `S=C(S)NCCc1ccccc1` belongs 4620 nM; to `OCCCNC(=S)S`, 3190 nM; to `CN(C)CCNC(=S)S`, 2980 nM.

The compound `O=C(O)[C@@H]1CCCN(C(=S)S)C1` returned an inhibition constant Ki of 577 nM. To `O=C(O)C1CCCN(C(=S)S)C1` (configuration not stated) belongs 718 nM; to `O=C(O)C1CCN(C(=S)S)CC1`, 556 nM. `O=C(O)[C@H]1CCCN(C(=S)S)C1`: the affinity, expressed as Ki, was 929 nM.

In turn, `OC1CCCN(C(=S)S)C1` (configuration not stated) had a Ki of 678 nM. To `CC(=O)NC1CCCN(C(=S)S)C1` (configuration not stated) belongs 885 nM; to `OCCCCNC(=S)S`, 6240 nM; to `NS(=O)(=O)c1ccc(CCNC(=S)S)cc1`, 914 nM. In turn, `S=C(S)N1CCCCC1` gave a Ki of 773 nM. To `CC1COCCN1C(=S)S` (configuration not stated) belongs 660 nM; to `O=C(CN1CCN(C(=S)S)CC1)NC1CCCCC1`, 801 nM; to `CC(=O)Nc1nnc(S(N)(=O)=O)s1` [ACETAZOLAMIDE], 74000 nM. To `OCCCCCNC(=S)S` belongs 383 nM; to `CC(C)(C)OC(=O)NC1CCCN(C(=S)S)C1` (configuration not stated), 644 nM.
